In patent US10954221B2, “GLP-1R agonists and uses thereof” (QILU REGOR THERAPEUTICS INC., priority 2019, dated 2021):

How the values were obtained:
GLP1R [1] = molecular target: T1, GLP1R (Homo sapiens, UniProt P43220); assay: β-Arrestin-mediated GLP1R internalization assay (PathHunter U2OS cells); format: cell-based; set-up: host or cells: PathHunter engineered U2OS cells; details: averaged Bmax where applicable, Percentage of Control GLP-1 (7-37), top 10 μM, 180 min
Text: A similar assay can also be used to assess the extent of signal attenuation due to GLP-1R internalization (the Internalization Assay). In this assay, activated GLP1R Internalization cells were engineered to co-express an untagged GLP1R, Enzyme Acceptor (EA) tagged β-Arrestin, and a ProLink™ (PK) tag localized to the endosomes. Activation of the GLP1R induces β-Arrestin recruitment, which leads to internalization of the Receptor/Arrestin-EA complex in PK-tagged endosomes. This forces complementation of the two β-galactosidase enzyme fragments (EA and PK) to form a functional enzyme that hydrolyzes substrate to generate a chemiluminescent signal.
Frozen cells were quickly thawed and 10 mL of cell plating medium (provided by the kit) was added to thawed cells. Cells were stored in a 37° C. incubator and kept for approximately 48 hours until ready for the assay.
Reference and test compounds were dissolved in 100% DMSO. […] 5 μL of this solution was added to 20 μL cell medium in assay plate for a final top concentration of 10 μM. Plates were incubated at 37° C. for 180 min.
Following 180 min incubation, detection reagents were made up by combining 1 part Galacton Star Substrate with 5 parts Emerald II™ Solution, and 19 parts of PathHunter Cell Assay Buffer, respectively. 12.5 μL detection reagent was added to each well. The plates were then incubated at room temperature for 60 min. Plates were then read on Envision for 0.1 sec/well.
EC50 determinations were made from agonist dose-response curves analyzed with a curve fitting program using a 4-parameter logistic dose response equation.
Target sequence in this assay (P43220 24-463): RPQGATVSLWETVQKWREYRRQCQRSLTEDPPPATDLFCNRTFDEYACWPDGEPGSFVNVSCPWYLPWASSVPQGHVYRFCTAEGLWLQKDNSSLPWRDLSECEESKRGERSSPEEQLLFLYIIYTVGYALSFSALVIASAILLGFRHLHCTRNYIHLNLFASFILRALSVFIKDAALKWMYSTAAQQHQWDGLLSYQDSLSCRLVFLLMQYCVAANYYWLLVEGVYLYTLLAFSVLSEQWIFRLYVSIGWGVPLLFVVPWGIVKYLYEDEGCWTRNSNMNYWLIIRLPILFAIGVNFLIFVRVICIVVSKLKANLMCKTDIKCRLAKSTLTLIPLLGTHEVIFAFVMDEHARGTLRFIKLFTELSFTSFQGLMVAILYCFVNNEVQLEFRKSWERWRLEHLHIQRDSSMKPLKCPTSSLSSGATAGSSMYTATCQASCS
Target sequence in this assay (P32121 whole entry partner, the tested form may be a part): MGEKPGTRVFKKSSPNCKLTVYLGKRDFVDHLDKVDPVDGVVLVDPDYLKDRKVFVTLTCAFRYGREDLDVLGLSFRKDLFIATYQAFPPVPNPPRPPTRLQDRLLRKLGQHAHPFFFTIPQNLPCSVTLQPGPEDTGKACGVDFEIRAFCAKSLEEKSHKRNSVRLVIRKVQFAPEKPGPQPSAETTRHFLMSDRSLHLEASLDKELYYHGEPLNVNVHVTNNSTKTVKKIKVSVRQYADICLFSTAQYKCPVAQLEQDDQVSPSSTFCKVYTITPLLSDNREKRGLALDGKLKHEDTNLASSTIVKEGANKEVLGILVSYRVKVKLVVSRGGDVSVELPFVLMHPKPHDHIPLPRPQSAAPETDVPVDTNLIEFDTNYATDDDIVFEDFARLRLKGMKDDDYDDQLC

GLP1R [2] = molecular target: T1, GLP1R; assay: GLP1R cAMP assay (HTRF), HEK293/GLP-1R/CRE/Luc, Clone 4
Target sequence in this assay (P43220 24-463): as the sequence (P43220 24-463) above

GLP1R [3] = molecular target: T1, GLP1R; set-up: Emax: dose or concentration left out as unconfirmed; details: for Emax: CHO-K1, […], read-out: β-arrestin recruitment Bmax (%)
Target sequence in this assay (P43220 24-463): as above
Target sequence in this assay (P32121 whole entry partner, the tested form may be a part): as the sequence (P32121 whole entry partner, the tested form may be a part) above

SMILES	β-arrestin internalization Bmax (POC) (GLP1R [1])	EC50 (GLP1R [2]) [nM]	Emax (GLP1R [3]) [%]	β-arrestin recruitment Bmax (%) (GLP1R [3]; partial maximum relative effect at the highest concentration tested (top 10 μM), relative to Bmax of GLP-1 (7-37), PathHunter CHO-K1 GLP1R β-Arrestin cells)
O=C(O)c1ccc2nc(Cc3ccc(-c4nccc(OCc5ccc(Cl)cc5F)n4)cc3F)n(C[C@@H]3CCO3)c2c1 [Compound 86, (S)-2-(4-(4-((4-chloro-2-fluorobenzyl)oxy)pyrimidin-2-yl)-2-fluorobenzyl)-1-(oxetan-2-ylmethyl)-1H-benzo[d]imidazole-6-carboxylic acid]	41.8	< 15	33.5	
O=C(O)c1ccc2nc(Cc3ccc(-c4ccnc(OCc5ccc(Cl)cc5F)n4)cc3F)n(C[C@@H]3CCO3)c2c1 [Compound 87, (S)-2-(4-(2-((4-chloro-2-fluorobenzyl)oxy)pyrimidin-4-yl)-2-fluorobenzyl)-1-(oxetan-2-ylmethyl)-1H-benzo[d]imidazole-6-carboxylic acid]	23.9	< 15	33.1	
O=C(O)c1ccc2nc(Cc3ccc(-c4ccc(F)c(OCc5ccc(Cl)cc5F)n4)cc3F)n(C[C@@H]3CCO3)c2c1 [Compound 88, (S)-2-(4-(6-(4-chloro-2-fluorobenzyloxy)-5-fluoropyridin-2-yl)-2-fluorobenzyl)-1-(oxetan-2-ylmethyl)-1H-benzo[d]imidazole-6-carboxylic acid]	29.2	< 15	44.6	
O=C(O)c1ccc2nc(Cc3ccc(-c4cccc(OCc5ccc(Cl)cc5F)c4)cc3F)n(C[C@@H]3CCO3)c2c1 [Compound 89, (S)-2-((3′-((4-chloro-2-fluorobenzyl)oxy)-3-fluoro-[1,1′-biphenyl]-4-yl)methyl)-1-(oxetan-2-ylmethyl)-1H-benzo[d]imidazole-6-carboxylic acid]	20.0	< 15	25.3	
O=C(O)c1ccc2nc(Cc3ccc(-c4ncc(F)c(OCc5ccc(Cl)cc5F)n4)cc3F)n(C[C@@H]3CCO3)c2c1 [Compound 90, (S)-2-(4-(4-((4-chloro-2-fluorobenzyl)oxy)-5-fluoropyrimidin-2-yl)-2-fluorobenzyl)-1-(oxetan-2-ylmethyl)-1H-benzo[d]imidazole-6-carboxylic acid]	21.6	< 15	29.5 ± 3.21	
O=C(O)c1ccc2nc(Cc3ccc(-c4nc(OCc5ccc(Cl)cc5F)ncc4F)cc3F)n(C[C@@H]3CCO3)c2c1 [Compound 91, (S)-2-(4-(2-(4-chloro-2-fluorobenzyloxy)-5-fluoropyrimidin-4-yl)-2-fluorobenzyl)-1-(oxetan-2-ylmethyl)-1H-benzo[d]imidazole-6-carboxylic acid]	21.6	< 15	35.8	
O=C(O)c1ccc2nc(Cc3ccc(-c4cccc(OCc5ccc(Cl)cc5F)n4)cc3)n(C[C@@H]3CCO3)c2c1 [Compound 94, (S)-2-(4-(6-((4-chloro-2-fluorobenzyl)oxy)pyridin-2-yl)benzyl)-1-(oxetan-2-ylmethyl)-1H-benzo[d]imidazole-6-carboxylic acid]	27.3 ± 7.75	< 15		33.3
O=C(O)c1ccc2nc(Cc3ccc(-c4cccc(OCc5ccc(Cl)cc5F)n4)nc3)n(C[C@@H]3CCO3)c2c1 [Compound 100, (S)-2-((6′-(4-chloro-2-fluorobenzyloxy)-2,2′-bipyridin-5-yl)methyl)-1-(oxetan-2-ylmethyl)-1H-benzo[d]imidazole-6-carboxylic acid]	0.881	> 1000	0.971	
O=C(O)c1ccc2nc(Cc3ccc(-c4cccc(OCc5ccc(Cl)cc5F)n4)cn3)n(C[C@@H]3CCO3)c2c1 [Compound 101, (S)-2-((6-((4-chloro-2-fluorobenzyl)oxy)-[2,3′-bipyridin]-6′-yl)methyl)-1-(oxetan-2-ylmethyl)-1H-benzo[d]imidazole-6-carboxylicacid]	3.08	> 1000	1.05	

Next, values leading:

β-arrestin internalization Bmax (POC) (GLP1R [1])	EC50 (GLP1R [2]) [nM]	Emax (GLP1R [3]) [%]	β-arrestin recruitment Bmax (%) (GLP1R [3]; partial maximum relative effect at the highest concentration tested (top 10 μM), relative to Bmax of GLP-1 (7-37), PathHunter CHO-K1 GLP1R β-Arrestin cells)	SMILES
25.4 ± 1.39	< 15	47.3 ± 4.55		O=C(O)c1ccc2nc(Cc3ccc(-c4cccc(OCc5ccc(Cl)cc5F)n4)c(F)c3F)n(C[C@@H]3CCO3)c2c1 [Compound 262, (S)-2-(4-(6-(4-chloro-2-fluorobenzyloxy)pyridin-2-yl)-2,3-difluorobenzyl)-1-(oxetan-2-ylmethyl)-1H-benzo[d]imidazole-6-carboxylic acid]
30.2 ± 6.53	< 15	41.7 ± 3.45		O=C(O)c1ccc2nc(Cc3ccc(-c4ccc(F)c(OCc5ccc(F)cc5F)n4)c(F)c3)n(C[C@@H]3CCO3)c2n1 [Compound 267, (S)-2-(4-(6-(2,4-difluorobenzyloxy)-5-fluoropyridin-2-yl)-3-fluorobenzyl)-3-(oxetan-2-ylmethyl)-3H-imidazo[4,5-b]pyridine-5-carboxylic acid]
23.0	< 15	39.3 ± 4.96		O=C(O)c1ccc2nc(Cc3ccc(-c4ccc(F)c(OCc5ccc(F)cc5F)n4)cc3F)n(C[C@@H]3CCO3)c2n1 [Compound 277, (S)-2-(4-(6-(2,4-difluorobenzyloxy)-5-fluoropyridin-2-yl)-2-fluorobenzyl)-3-(oxetan-2-ylmethyl)-3H-imidazo[4,5-b]pyridine-5-carboxylic acid]
36.5	< 15	48.5 ± 6.64		O=C(O)c1ccc2nc(Cc3ccc(-c4cccc(OCc5ccc(Cl)cc5F)n4)cc3F)n(C[C@@H]3CCO3)c2n1 [Compound 281, 2-[[4-[6-[(4-chloro-2-fluoro-phenyl)methoxy]-2-pyridyl]-2-fluoro-phenyl]methyl]-3-[[(2S)-oxetan-2-yl]methyl]imidazo[4,5-b]pyridine-5-carboxylic acid]
21.6 ± 3.52	< 15	39.9 ± 4.4		O=C(O)c1ccc2nc(Cc3ccc(-c4cccc(OCc5ccc(F)cc5F)n4)c(F)c3)n(C[C@@H]3CCO3)c2n1 [Compound 290, (S)-2-(4-(6-((2,4-difluorobenzyl)oxy)pyridin-2-yl)-3-fluorobenzyl)-3-(oxetan-2-ylmethyl)-3H-imidazo[4,5-b]pyridine-5-carboxylic acid]
22.8 ± 0.142	< 15	29.4 ± 6.84		N#Cc1ccc(COc2ncc(F)c(-c3ccc(Cc4nc5ccc(C(=O)O)nc5n4C[C@@H]4CCO4)c(F)c3)n2)c(F)c1 [Compound 291, (S)-2-(4-(2-((4-cyano-2-fluorobenzyl)oxy)-5-fluoropyrimidin-4-yl)-2-fluorobenzyl)-3-(oxetan-2-ylmethyl)-3H-imidazo[4,5-b]pyridine-5-carboxylic acid]
33.8 ± 2.73	< 15	46.8 ± 7.21		N#Cc1ccc(COc2cccc(-c3ccc(Cc4nc5ccc(C(=O)O)c(F)c5n4C[C@@H]4CCO4)cc3F)n2)c(F)c1 [Compound 307, (S)-2-(4-(6-((4-cyano-2-fluorobenzyl)oxy)pyridin-2-yl)-3-fluorobenzyl)-7-fluoro-1-(oxetan-2-ylmethyl)-1H-benzo[d]imidazole-6-carboxylic acid]
